In BigSolDB 2.1:

For `NC(=O)N1c2ccccc2CC(=O)c2ccccc21`, the solubility (mole fraction) (in THF, 288.15 K) was 0.00204, the solubility (mole fraction) (in THF, 293.15 K) was 0.00217 and the solubility (mole fraction) (in THF, 298.15 K) was 0.00241. For the same compound, the solubility (mole fraction) (in THF, 303.15 K) was 0.00266, the solubility (mole fraction) (in THF, 308.15 K) was 0.00308 and the solubility (mole fraction) (in acetone, 288.15 K) was 0.00105. It also gave a solubility (mole fraction) (in acetone, 293.15 K) of 0.0012, a solubility (mole fraction) (in acetone, 298.15 K) of 0.00134 and a solubility (mole fraction) (in acetone, 303.15 K) of 0.00154. For the same compound, the solubility (mole fraction) (in acetone, 308.15 K) was 0.00182, the solubility (mole fraction) (in acetonitrile, 288.15 K) was 0.000641 and the solubility (mole fraction) (in acetonitrile, 293.15 K) was 0.000751. The solubility (mole fraction) (in acetonitrile, 298.15 K) was 0.000839, the solubility (mole fraction) (in acetonitrile, 303.15 K) was 0.00103 and the solubility (mole fraction) (in acetonitrile, 308.15 K) was 0.00122. The solubility (mole fraction) (in ethanol, 288.15 K) was 0.000273, the solubility (mole fraction) (in ethanol, 293.15 K) was 0.000322 and the solubility (mole fraction) (in ethanol, 298.15 K) was 0.000383. For the same compound, the solubility (mole fraction) (in ethanol, 303.15 K) was 0.000488, the solubility (mole fraction) (in ethanol, 308.15 K) was 0.000617 and the solubility (mole fraction) (in isopropanol, 288.15 K) was 0.000151. The solubility (mole fraction) (in isopropanol, 293.15 K) was 0.000187, the solubility (mole fraction) (in isopropanol, 298.15 K) was 0.000217 and the solubility (mole fraction) (in isopropanol, 303.15 K) was 0.000299. It also gave a solubility (mole fraction) (in isopropanol, 308.15 K) of 0.000413, a solubility (mole fraction) (in methanol, 288.15 K) of 0.000534 and a solubility (mole fraction) (in methanol, 293.15 K) of 0.000619. It also gave a solubility (mole fraction) (in methanol, 298.15 K) of 0.000759, a solubility (mole fraction) (in methanol, 303.15 K) of 0.000907 and a solubility (mole fraction) (in methanol, 308.15 K) of 0.00111. The solubility (mole fraction) (in n-butanol, 288.15 K) was 0.000251, the solubility (mole fraction) (in n-butanol, 293.15 K) was 0.000309 and the solubility (mole fraction) (in n-butanol, 298.15 K) was 0.000355. The solubility (mole fraction) (in n-butanol, 303.15 K) was 0.000479, the solubility (mole fraction) (in n-butanol, 308.15 K) was 0.000617 and the solubility (mole fraction) (in n-propanol, 288.15 K) was 0.000245. It also gave a solubility (mole fraction) (in n-propanol, 293.15 K) of 0.000301, a solubility (mole fraction) (in n-propanol, 298.15 K) of 0.000358 and a solubility (mole fraction) (in n-propanol, 303.15 K) of 0.000475. For the same compound, the solubility (mole fraction) (in n-propanol, 308.15 K) was 0.000616.
